Values belong to the compound of their own block, whether it stands above or below them.
How the values were obtained:
[1] = target: Calcium/calmodulin-dependent protein kinase type II subunit beta (Homo sapiens) (UniProt Q13554); assay: Inhibition of human recombinant CaMK2b at 500 nM in presence of ATP by radiometric assay relative to control
[2] = target: NT-3 growth factor receptor (Homo sapiens) (UniProt Q16288); assay: Inhibition of human recombinant TRKC at 500 nM in presence of ATP by radiometric assay relative to control
NT-3 growth factor receptor (Homo sapiens), sequence (Q16288 32-839 limits assumed): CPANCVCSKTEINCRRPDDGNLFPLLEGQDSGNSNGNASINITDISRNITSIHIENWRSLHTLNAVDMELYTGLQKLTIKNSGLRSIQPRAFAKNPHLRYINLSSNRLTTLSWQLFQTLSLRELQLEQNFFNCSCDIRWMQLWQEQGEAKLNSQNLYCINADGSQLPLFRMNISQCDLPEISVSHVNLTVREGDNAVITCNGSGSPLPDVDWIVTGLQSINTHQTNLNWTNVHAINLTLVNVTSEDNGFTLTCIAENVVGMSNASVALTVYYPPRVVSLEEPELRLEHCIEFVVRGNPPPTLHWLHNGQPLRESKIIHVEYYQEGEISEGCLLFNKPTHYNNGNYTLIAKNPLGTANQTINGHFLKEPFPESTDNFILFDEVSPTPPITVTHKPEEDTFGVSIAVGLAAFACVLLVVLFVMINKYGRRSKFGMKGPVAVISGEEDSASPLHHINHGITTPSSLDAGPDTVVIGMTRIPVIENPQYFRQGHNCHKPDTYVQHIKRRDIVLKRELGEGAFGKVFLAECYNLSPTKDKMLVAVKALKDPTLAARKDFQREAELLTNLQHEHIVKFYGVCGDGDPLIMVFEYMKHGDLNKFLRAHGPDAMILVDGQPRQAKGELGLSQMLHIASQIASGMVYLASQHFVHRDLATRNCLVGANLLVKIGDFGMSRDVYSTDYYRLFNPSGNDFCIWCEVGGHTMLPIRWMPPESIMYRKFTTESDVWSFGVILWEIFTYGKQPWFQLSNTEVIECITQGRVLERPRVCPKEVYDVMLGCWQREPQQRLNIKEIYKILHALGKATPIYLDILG

[3] = target: RAC-gamma serine/threonine-protein kinase (Homo sapiens) (UniProt Q9Y243); assay: Inhibition of human recombinant AKT3 at 500 nM related to control ULK1
RAC-gamma serine/threonine-protein kinase (Homo sapiens), sequence (Q9Y243 whole entry): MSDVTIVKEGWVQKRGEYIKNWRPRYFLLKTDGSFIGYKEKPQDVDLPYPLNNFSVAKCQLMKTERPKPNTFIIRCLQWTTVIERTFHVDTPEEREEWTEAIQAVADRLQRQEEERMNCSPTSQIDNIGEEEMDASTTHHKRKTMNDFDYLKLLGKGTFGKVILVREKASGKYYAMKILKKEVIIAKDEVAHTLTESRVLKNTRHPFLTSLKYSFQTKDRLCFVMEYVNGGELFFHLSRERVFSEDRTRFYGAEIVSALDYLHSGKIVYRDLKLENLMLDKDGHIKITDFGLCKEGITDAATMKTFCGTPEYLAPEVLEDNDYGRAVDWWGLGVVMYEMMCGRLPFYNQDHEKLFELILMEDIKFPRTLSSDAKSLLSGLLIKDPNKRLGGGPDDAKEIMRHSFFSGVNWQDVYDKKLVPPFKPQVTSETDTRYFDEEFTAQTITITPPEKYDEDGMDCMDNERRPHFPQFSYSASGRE

[4] = target: T1, Serine/threonine-protein kinase BRSK2 (Homo sapiens) (UniProt Q8IWQ3); assay: Inhibition of human recombinant BRSK2 at 500 nM related to control ULK1
T1 sequence (whole entry): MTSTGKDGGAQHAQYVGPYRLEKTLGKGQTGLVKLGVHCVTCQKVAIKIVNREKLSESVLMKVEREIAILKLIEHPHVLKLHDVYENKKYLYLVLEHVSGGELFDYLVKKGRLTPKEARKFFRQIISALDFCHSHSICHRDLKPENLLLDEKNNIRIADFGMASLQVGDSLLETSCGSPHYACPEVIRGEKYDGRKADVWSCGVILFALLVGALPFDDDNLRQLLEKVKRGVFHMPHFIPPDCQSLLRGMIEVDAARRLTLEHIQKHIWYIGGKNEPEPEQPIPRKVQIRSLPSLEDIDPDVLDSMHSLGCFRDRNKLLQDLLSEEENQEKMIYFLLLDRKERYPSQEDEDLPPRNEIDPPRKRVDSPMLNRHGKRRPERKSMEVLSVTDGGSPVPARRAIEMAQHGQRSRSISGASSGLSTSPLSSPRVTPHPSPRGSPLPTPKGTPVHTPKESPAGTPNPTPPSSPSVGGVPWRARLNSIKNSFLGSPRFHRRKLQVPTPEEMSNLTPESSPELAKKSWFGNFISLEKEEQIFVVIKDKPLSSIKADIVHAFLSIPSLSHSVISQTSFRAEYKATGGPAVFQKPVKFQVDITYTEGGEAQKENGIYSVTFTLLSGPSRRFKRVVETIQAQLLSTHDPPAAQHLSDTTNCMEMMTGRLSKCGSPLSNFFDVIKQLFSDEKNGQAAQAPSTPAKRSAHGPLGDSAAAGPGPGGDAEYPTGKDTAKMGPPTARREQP

[5] = target: Serine/threonine-protein kinase PAK 4 (Homo sapiens) (UniProt O96013); assay: Inhibition of human recombinant PAK4 at 15 nM in presence of ATP by radiometric assay relative to control
Serine/threonine-protein kinase PAK 4 (Homo sapiens), sequence (O96013 whole entry, looked up): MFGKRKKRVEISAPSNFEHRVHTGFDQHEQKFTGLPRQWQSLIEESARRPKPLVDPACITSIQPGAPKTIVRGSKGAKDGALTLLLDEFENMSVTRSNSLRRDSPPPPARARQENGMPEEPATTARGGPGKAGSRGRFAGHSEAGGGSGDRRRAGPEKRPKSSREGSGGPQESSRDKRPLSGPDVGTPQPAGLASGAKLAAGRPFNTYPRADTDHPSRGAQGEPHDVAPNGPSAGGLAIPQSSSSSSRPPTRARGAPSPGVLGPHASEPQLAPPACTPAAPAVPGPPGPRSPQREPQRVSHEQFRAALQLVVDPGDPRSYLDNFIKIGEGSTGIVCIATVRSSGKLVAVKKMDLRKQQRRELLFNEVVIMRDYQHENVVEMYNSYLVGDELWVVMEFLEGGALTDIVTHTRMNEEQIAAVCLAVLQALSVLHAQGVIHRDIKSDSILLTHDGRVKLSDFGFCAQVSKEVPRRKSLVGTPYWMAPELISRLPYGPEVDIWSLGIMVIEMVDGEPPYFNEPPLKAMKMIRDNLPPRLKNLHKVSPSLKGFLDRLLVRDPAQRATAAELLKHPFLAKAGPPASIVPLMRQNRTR

[6] = target: Fibroblast growth factor receptor 3 (Homo sapiens) (UniProt P22607); assay: Inhibition of human recombinant FGFR3 at 15 nM related to control ULK1
Fibroblast growth factor receptor 3 (Homo sapiens), sequence (P22607 23-806 limits assumed): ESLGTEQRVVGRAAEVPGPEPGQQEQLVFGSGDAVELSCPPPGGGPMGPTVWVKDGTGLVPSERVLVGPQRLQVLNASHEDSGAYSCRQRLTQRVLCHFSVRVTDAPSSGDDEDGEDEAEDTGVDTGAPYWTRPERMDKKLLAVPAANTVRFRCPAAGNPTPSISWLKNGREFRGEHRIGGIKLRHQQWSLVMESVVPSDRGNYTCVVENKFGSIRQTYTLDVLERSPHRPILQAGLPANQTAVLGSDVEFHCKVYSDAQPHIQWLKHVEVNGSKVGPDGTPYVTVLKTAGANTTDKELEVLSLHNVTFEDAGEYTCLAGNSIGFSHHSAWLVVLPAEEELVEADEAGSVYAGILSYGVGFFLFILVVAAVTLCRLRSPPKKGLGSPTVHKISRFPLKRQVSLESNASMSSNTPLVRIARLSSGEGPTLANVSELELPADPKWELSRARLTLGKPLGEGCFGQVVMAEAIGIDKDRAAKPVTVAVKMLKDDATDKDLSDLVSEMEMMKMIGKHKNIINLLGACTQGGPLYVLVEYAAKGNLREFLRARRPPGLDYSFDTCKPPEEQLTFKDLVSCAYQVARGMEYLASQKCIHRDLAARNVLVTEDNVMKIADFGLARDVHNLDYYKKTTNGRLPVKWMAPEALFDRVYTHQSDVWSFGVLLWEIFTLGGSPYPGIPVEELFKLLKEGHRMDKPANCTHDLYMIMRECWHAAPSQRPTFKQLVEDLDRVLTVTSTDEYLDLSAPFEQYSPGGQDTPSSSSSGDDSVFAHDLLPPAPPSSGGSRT

[7] = target: Maternal embryonic leucine zipper kinase (Homo sapiens) (UniProt Q14680); assay: Inhibition of human recombinant MELK at 15 nM related to control ULK1
Maternal embryonic leucine zipper kinase (Homo sapiens), sequence (Q14680 whole entry, looked up): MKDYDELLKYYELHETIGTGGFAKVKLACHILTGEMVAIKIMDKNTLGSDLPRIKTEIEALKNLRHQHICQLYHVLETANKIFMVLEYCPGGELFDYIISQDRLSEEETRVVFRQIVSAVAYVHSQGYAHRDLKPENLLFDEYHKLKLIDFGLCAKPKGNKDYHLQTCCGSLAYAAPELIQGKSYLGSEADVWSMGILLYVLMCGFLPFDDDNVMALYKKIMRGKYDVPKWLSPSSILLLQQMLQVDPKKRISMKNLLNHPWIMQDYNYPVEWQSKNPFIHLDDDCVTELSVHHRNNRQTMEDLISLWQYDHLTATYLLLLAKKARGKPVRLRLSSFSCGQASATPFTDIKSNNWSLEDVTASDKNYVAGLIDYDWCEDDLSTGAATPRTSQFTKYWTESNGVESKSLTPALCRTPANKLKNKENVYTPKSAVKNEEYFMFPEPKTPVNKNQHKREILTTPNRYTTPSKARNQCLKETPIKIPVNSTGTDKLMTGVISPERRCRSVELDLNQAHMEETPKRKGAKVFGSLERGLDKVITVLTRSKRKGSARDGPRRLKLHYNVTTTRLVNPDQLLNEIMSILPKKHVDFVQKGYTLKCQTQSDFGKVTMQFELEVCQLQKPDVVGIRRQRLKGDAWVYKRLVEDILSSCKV

[8] = target: Interferon-induced, double-stranded RNA-activated protein kinase (Homo sapiens) (UniProt P19525); assay: Inhibition of human recombinant PKR at 15 nM related to control ULK1
[9] = target: Cyclin-dependent kinase 9 (Homo sapiens) (UniProt P50750); assay: Inhibition of human recombinant CDK9 at 40 nM in presence of ATP by radiometric assay relative to control
Cyclin-dependent kinase 9 (Homo sapiens), sequence (P50750 whole entry): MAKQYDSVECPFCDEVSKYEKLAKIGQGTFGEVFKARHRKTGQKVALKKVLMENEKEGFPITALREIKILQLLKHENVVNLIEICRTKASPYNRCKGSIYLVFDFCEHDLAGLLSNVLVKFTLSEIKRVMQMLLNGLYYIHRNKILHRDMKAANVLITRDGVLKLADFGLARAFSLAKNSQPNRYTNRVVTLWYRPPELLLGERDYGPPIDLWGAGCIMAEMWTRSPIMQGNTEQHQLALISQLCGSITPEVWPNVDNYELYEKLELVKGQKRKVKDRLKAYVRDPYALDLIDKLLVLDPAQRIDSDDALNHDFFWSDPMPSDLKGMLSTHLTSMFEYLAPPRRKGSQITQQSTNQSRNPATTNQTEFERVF

[10] = target: Mitogen-activated protein kinase kinase kinase kinase 1 (Homo sapiens) (UniProt Q92918); assay: Inhibition of human recombinant HPK1 at 40 nM in presence of ATP by radiometric assay relative to control
[11] = target: T2, Bone morphogenetic protein receptor type-2 (Homo sapiens) (UniProt Q13873); assay: Inhibition of human recombinant BMPR2 at 40 nM related to control ULK1
T2 sequence (whole entry): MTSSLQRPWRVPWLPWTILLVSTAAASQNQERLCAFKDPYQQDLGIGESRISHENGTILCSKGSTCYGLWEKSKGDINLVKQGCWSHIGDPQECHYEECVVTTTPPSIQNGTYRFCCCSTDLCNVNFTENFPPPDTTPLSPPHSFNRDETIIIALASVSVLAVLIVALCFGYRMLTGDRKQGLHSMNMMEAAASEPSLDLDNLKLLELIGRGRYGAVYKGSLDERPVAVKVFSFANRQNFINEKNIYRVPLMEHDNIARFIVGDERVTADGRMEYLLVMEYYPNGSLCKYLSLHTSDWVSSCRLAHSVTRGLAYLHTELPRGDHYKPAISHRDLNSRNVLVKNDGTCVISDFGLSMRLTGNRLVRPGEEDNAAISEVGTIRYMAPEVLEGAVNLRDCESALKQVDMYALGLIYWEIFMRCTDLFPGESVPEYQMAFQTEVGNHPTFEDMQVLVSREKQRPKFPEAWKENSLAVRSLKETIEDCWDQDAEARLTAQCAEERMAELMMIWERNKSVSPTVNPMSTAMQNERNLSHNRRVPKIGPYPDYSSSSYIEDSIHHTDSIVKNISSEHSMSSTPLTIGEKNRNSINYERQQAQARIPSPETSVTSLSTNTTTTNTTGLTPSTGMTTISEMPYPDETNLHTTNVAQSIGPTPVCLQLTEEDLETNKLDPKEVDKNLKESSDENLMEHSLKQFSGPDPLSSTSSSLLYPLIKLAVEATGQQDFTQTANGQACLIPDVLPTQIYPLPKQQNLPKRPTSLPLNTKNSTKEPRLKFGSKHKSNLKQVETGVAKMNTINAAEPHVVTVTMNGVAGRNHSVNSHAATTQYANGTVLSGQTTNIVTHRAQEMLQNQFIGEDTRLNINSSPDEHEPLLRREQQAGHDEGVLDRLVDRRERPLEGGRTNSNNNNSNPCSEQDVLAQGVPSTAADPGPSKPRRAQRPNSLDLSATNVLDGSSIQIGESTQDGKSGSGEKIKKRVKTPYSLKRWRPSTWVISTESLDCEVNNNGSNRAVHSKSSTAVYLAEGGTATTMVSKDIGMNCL

[12] = target: RAF proto-oncogene serine/threonine-protein kinase (Homo sapiens) (UniProt P04049); assay: Inhibition of human recombinant RAF1 at 40 nM related to control ULK1
RAF proto-oncogene serine/threonine-protein kinase (Homo sapiens), sequence (P04049 whole entry): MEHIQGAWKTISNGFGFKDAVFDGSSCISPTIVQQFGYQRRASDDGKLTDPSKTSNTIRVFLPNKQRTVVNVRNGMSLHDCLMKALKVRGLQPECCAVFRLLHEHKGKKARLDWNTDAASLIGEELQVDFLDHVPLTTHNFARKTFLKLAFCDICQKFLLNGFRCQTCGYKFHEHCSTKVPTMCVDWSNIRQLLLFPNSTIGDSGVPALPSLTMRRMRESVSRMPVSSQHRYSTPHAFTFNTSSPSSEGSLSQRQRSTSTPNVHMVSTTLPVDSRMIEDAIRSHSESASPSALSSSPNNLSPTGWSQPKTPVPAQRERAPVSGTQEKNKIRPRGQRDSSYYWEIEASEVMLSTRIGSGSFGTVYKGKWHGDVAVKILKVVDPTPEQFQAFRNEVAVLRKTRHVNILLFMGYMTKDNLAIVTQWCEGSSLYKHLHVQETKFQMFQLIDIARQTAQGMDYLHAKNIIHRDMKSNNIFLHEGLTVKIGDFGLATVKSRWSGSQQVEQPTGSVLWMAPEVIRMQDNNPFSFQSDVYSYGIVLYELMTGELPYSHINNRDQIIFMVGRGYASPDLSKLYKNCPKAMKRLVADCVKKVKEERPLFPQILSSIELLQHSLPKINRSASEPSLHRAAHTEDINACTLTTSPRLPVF

Calcium/calmodulin-dependent protein kinase type II subunit beta (Homo sapiens), sequence (Q13554 whole entry): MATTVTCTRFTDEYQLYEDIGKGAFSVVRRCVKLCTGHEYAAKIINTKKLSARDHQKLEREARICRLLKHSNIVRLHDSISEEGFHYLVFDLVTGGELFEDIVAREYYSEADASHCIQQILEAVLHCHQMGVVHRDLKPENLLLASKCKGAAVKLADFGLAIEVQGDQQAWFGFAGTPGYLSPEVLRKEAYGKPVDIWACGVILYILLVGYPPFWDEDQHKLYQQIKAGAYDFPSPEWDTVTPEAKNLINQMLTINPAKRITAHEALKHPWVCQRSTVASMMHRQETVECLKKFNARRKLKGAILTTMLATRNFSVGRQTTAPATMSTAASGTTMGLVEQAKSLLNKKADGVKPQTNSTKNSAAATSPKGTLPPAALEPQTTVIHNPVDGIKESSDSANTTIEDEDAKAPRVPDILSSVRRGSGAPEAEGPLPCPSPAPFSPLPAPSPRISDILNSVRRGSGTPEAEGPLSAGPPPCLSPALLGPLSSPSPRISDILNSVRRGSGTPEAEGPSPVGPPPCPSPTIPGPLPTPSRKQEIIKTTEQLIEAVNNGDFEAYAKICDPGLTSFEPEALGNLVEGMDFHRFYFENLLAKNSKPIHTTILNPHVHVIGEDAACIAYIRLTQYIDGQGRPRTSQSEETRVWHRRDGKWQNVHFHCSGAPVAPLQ

inhibition [1]: 0%
inhibition [2]: 0%
fold change (FC) [3]: 0.07
fold change (FC) [4]: 0.04
Compound: CNC(=O)c1ccccc1Oc1nc(Nc2cc(OC)c(OC)c(OC)c2)ncc1Br

inhibition [5]: 0%
fold change (FC) [6]: 0
fold change (FC) [7]: 0.76
fold change (FC) [8]: 0.02
Compound: CC(C)[C@H](NC(=O)c1cc(-c2cnn3cc(-c4ccc(OCCN5CCCCC5)cc4)cnc23)cs1)C(F)(F)F

inhibition [9]: 0%
inhibition [10]: 0%
fold change (FC) [11]: 0.08
fold change (FC) [12]: 0.01
Compound: O=C(N[C@@H](C1CC1)C(F)(F)F)c1cc(-c2cnn3cc(-c4ccc(F)cc4)cnc23)cs1

From ChEMBL document CHEMBL5653631, “A Potent and Selective ULK1 Inhibitor Suppresses Autophagy and Sensitizes Cancer Cells to Nutrient Stress” (iScience, 2018)
